Experimental data as given in patent US8697380B2, “Method for detecting compounds modulating dimers of VFT domain membrane proteins” (CIS Bio International, priority 2009, dated 2014).

Target: mGluR2-mGluR2 dimer (Rattus norvegicus, UniProt P31421)
Conditions: for change in TRF520 signal in the presence of the compound: delay 50 μs, integration time 450 μs, BG-Lumi4-Tb/BC-fluorescein, dose-dependent; for maximum variation of TRF520 signal: dose-response up to 100 μM DCG-IV / 316 μM glutamate

Chain of mGluR2-mGluR2 dimer (P31421 23-872): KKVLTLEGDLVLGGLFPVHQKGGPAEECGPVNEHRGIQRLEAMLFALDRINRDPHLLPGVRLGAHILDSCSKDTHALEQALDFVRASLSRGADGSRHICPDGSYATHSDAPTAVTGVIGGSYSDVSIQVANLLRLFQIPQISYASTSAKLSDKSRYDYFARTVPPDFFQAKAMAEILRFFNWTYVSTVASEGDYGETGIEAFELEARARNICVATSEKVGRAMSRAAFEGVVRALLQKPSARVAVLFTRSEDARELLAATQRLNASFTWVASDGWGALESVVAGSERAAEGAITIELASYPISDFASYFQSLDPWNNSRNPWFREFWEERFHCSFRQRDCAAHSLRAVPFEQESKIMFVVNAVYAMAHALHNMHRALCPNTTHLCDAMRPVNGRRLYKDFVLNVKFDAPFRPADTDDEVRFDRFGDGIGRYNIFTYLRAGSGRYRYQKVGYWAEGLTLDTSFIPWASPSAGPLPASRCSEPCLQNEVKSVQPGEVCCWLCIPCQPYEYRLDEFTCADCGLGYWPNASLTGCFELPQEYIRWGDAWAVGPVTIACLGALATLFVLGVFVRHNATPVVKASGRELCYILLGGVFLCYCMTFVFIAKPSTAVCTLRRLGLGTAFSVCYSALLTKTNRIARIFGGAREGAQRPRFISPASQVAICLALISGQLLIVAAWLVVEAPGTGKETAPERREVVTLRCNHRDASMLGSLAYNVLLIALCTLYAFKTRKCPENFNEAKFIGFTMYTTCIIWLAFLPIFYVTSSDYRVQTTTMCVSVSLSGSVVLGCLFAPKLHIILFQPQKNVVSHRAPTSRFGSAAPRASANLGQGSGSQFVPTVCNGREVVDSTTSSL
Chain of mGluR2-mGluR2 dimer (P31421 23-872): as above

## N[C@@H](CCC(=O)O)C(=O)O [glutamate, L-glutamic acid]
  change in TRF520 signal in the presence of the compound: decrease in TRF520
  maximum variation of TRF520 signal: 50%
Glutamate 100 μM, in the absence of the antagonist LY341495
  variation in TRF520: 50%

## COc1ccccc1Oc1ccc(N(Cc2cccnc2)S(=O)(=O)CC(F)(F)F)cc1 [4-MPPTS]
4-MPPTS 10 μM, glutamate 1-1000 μM
  TRF520 signal for a given glutamate concentration, in the presence versus absence of the modulator: greater decrease in signal

## N[C@H](C(=O)O)C1[C@@H](C(=O)O)[C@@H]1C(=O)O (stereo partly shown) [DCG-IV]
  change in TRF520 signal in the presence of the compound: inhibiting the TRF520 signal in a dose-dependent manner
  maximum variation of TRF520 signal: 30%
read-out: concentration necessary for obtaining a variation equal to half the maximum variation (close to the pharmacological EC50), TRF520 signal, printed value is given as the pharmacological EC50
  EC50: ~400 nM
